According to US20100105724A1, “CRYSTALLINE AND AMORPHOUS FORMS OF PALONOSETRON HYDROCHLORIDE” (HELSINN HEALTHCARE SA, priority 2006, published 2010):

What was measured:
[1] = system: other receptors such as dopamine receptors; details: literature (Wong 1995; Eglen 1995); cited from earlier work
[2] = target: T1, 5-hydroxyltryptamine 3 receptor precursor (5-HT3 receptor) (Homo sapiens, UniProt P46098); details: in vitro, literature (Wong 1995; Eglen 1995); cited from earlier work
T1 sequence (P46098 24-478): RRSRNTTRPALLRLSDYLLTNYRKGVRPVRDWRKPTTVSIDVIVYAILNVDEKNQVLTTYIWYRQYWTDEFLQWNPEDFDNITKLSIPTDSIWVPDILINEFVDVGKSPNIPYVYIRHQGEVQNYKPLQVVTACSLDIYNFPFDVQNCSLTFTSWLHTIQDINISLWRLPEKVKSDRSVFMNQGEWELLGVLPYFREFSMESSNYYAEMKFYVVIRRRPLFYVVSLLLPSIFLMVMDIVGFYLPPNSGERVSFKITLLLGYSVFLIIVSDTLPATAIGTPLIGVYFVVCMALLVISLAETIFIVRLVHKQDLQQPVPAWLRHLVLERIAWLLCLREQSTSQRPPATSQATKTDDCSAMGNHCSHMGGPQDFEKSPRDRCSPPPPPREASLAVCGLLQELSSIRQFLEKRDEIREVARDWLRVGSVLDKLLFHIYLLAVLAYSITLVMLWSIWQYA

[3] = Physical stability determination of polymorphs and amorphous phase; format: physicochemical
Experimental: Physical Stability Determination—The physical stability of the polymorphs was determined by wetting the powders with water, suspending in ethanol, ethyl acetate, and exposing them to 93% relative humidity (RH) and 26% RH. The DSC thermogram and the x-ray diffraction pattern were obtained after a few days to determine if phase changes had occurred. The physical stability of the amorphous phase was determined by equilibrating a sample at 40° C., 75% RH for two weeks.

[4] = Hygroscopicity measurement (water absorption at constant relative humidity); format: physicochemical; details: for hygroscopicity: humidities up to 82% RH
Experimental: Hygroscopicity Measurement—Samples of 20-30 mg of the compound were weighed into small weighing bottles with ground glass tops. The bottles were dried in a 60° C. oven for 30 minutes. The samples were cooled in a dessicator containing anhydrous CaSO4 and then transferred to humidity chambers maintained at constant relative humidities with saturated salt solutions. The samples were weighed at different time intervals until equilibrium was reached. The percent moisture absorbed at a given time was calculated as follows: % Weight Change=((Wt−Wo)/Wo)×100 wherein W1=sample weight at given time after exposure to the indicated relative humidity, and Wo=initial sample weight.

O=C1c2cccc3c2[C@H](CCC3)CN1[C@@H]1CN2CCC1CC2 (single isomer, unassigned) [Palonosetron]
affinity for other receptors such as dopamine receptors [1]: low affinity
affinity as an antagonist for the 5-HT3 receptor [2]: high affinity

Cl.O=C1c2cccc3c2[C@H](CCC3)CN1[C@@H]1CN2CCC1CC2 [Form II]
phase change in suspension ([3]; suspended in ethanol for one week at ambient temperature (~25° C.)): converted to Form I

Cl.O=C1c2cccc3c2[C@H](CCC3)CN1[C@@H]1CN2CCC1CC2 [Form I]
Water absorbed ([4]; 50% relative humidity, 1 day): 0.02 weight %
Water absorbed ([4]; 50% relative humidity, 4 days): 0.14 weight %
Water absorbed ([4]; 50% relative humidity, 8 days): 0.05 weight %
Water absorbed ([4]; 75% relative humidity, 1 day): 0.15 weight %
Water absorbed ([4]; 75% relative humidity, 4 days): 0.22 weight %
Water absorbed ([4]; 75% relative humidity, 8 days): 0.22 weight %
Water absorbed ([4]; 82% relative humidity, 1 day): 0.14 weight %
Water absorbed ([4]; 82% relative humidity, 4 days): 0.25 weight %
Water absorbed ([4]; 82% relative humidity, 8 days): 0.54 weight %
moisture absorbed ([4]; 93% RH, after eight days): 26%
physical change on exposure to humidity ([4]; 93% RH, after eight days): turning into a paste
physical change on exposure to humidity ([4]; 93% RH, two weeks): liquefied
Water absorbed ([4]; 93% relative humidity, 1 day): 0.07 weight %
Water absorbed ([4]; 93% relative humidity, 4 days): 0.63 weight %
Water absorbed ([4]; 93% relative humidity, 8 days): 25.7 weight %
physical state of sample ([4]; 93% relative humidity, 8 days): Semi
Water absorbed (physical state printed) ([4]; 93% relative humidity, 15 days): Liquid
hygroscopicity [4]: not hygroscopic
Water absorbed ([4]; humidities up to 82%, after eight days): 0.5%
physical stability at high humidity ([3]; 93% relative humidity, two weeks, ambient temperature): deliquesced
physical stability as a suspension ([3]; suspension in ethanol): stable
physical stability as a suspension ([3]; suspension in ethyl acetate): stable
physical stability as a suspension ([3]; suspension in water): stable

Cl.O=C1c2cccc3c2[C@H](CCC3)CN1[C@@H]1CN2CCC1CC2 [Palonosetron hydrochloride, (3aS)-2-[(S)-1-Azabicyclo [2.2.2]oct-3-yl]-2,3,3a,4,5,6-hexahydro-1-oxo-1Hbenz[de] isoquinoline hydrochloride]
physical change on exposure to humidity ([4]; 93% RH, after eight days, hydrochloride): liquefies
hygroscopicity ([4]; hydrochloride): nonhygroscopic

Cl.O=C1c2cccc3c2[C@H](CCC3)CN1[C@@H]1CN2CCC1CC2 [amorphous form]
physical stability at low humidity ([3]; 26% RH, two weeks): remained amorphous
phase change on equilibration ([3]; 40° C., 75% RH, two weeks): converted to Form I
solid form after deliquescence at ambient humidity ([3]; ambient humidity, subsequent to deliquescence): re-solidified as Form II
behaviour on exposure to ambient humidity ([3]; removed from the desiccator, ambient humidity): deliquesced immediately
